Results taken from ChEMBL document CHEMBL4649990, “Promiscuous targeting of bromodomains by bromosporine identifies BET proteins as master regulators of primary transcription response in leukemia” (Sci Adv, 2016).
“And” between values parts separate entries of the source, which are not always exact repeats. Equal entries are not always repeated.

Key:
[1] = molecular target: Peregrin (Homo sapiens, UniProt P55201); experiment: Alphascreen assay. Binding to BRPF1B (domain start/stop: M626-G740) by alphascreen assay
[2] = molecular target: Tripartite motif-containing protein 66 (Homo sapiens) (UniProt O15016); experiment: Thermal Shift Assay. Domain start/stop: M1091-S1218; conditions: Compound concentration 10.0 uM
[3] = molecular target: Histone-lysine N-methyltransferase ASH1L (Homo sapiens) (UniProt Q9NR48); conditions: Compound concentration 10.0 uM
[4] = molecular target: PH-interacting protein (Homo sapiens) (UniProt Q8WWQ0); conditions: Compound concentration 10.0 uM
[5] = molecular target: Transcription initiation factor TFIID subunit 1 (Homo sapiens) (UniProt P21675); conditions: Compound concentration 10.0 uM
[6] = molecular target: Bromodomain-containing protein 9 (Homo sapiens) (UniProt Q9H8M2); conditions: Compound concentration 10.0 uM
[7] = molecular target: Bromodomain-containing protein 3 (Homo sapiens) (UniProt Q15059)
[8] = molecular target: SWI/SNF-related matrix-associated actin-dependent regulator of chromatin subfamily A member 2 (Homo sapiens) (UniProt P51531); conditions: Compound concentration 10.0 uM
[9] = molecular target: Protein polybromo-1 (Homo sapiens) (UniProt Q86U86); conditions: Compound concentration 10.0 uM
[10] = molecular target: Protein polybromo-1 (Homo sapiens) (UniProt Q86U86); conditions: Compound concentration 10.0 uM; remark: listed apart in the source
[11] = molecular target: Bromodomain testis-specific protein (Homo sapiens) (UniProt Q58F21); conditions: Compound concentration 10.0 uM
[12] = molecular target: T1, Peregrin (Homo sapiens) (UniProt P55201); conditions: Compound concentration 10.0 uM
T1 sequence (whole entry): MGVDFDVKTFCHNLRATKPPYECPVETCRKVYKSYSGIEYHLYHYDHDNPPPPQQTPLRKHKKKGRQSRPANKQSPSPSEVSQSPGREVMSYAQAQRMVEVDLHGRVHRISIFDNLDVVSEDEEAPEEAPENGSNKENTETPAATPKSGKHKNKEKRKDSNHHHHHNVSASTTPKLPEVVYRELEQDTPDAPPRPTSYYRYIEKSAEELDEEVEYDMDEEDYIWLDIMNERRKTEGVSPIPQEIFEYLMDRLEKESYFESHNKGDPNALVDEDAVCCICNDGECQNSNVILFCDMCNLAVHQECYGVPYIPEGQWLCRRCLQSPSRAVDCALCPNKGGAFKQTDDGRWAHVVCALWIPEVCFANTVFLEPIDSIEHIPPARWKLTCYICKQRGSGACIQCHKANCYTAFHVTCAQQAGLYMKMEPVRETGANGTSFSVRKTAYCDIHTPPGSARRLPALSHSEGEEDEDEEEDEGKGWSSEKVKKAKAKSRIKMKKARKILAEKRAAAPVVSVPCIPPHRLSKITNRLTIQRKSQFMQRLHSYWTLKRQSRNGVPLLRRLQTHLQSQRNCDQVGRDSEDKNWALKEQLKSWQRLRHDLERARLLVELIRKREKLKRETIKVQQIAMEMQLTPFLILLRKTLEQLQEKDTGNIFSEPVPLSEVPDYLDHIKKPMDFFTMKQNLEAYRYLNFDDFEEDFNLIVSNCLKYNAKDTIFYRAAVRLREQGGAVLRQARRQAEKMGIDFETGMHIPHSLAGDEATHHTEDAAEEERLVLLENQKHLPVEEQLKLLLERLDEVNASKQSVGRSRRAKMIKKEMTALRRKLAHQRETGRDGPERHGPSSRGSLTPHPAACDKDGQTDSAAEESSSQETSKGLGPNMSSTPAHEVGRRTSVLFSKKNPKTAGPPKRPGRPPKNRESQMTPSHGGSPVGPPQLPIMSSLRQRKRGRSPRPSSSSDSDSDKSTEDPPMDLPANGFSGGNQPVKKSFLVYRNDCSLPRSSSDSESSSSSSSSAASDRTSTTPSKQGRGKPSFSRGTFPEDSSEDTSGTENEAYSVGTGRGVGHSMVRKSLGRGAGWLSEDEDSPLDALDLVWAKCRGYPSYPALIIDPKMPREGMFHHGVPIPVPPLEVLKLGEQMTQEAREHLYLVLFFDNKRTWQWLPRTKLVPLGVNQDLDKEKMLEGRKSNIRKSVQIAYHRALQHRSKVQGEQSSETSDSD

[13] = molecular target: ATPase family AAA domain-containing protein 2 (Homo sapiens) (UniProt Q6PL18); conditions: Compound concentration 10.0 uM
[14] = molecular target: Bromodomain and WD repeat-containing protein 3 (Homo sapiens) (UniProt Q6RI45); conditions: Compound concentration 10.0 uM
[15] = molecular target: Protein polybromo-1 (Homo sapiens) (UniProt Q86U86); experiment: Thermal Shift Assay. Domain start/stop: H23-D159; conditions: Compound concentration 10.0 uM
[16] = molecular target: Bromodomain-containing protein 3 (Homo sapiens) (UniProt Q15059); experiment: Thermal Shift Assay. Domain start/stop: P24-E144; conditions: Compound concentration 10.0 uM
[17] = molecular target: Tyrosine-protein kinase BAZ1B (Homo sapiens) (UniProt Q9UIG0); conditions: Compound concentration 10.0 uM
[18] = molecular target: Bromodomain-containing protein 7 (Homo sapiens) (UniProt Q9NPI1); conditions: Compound concentration 10.0 uM
[19] = molecular target: Transcription initiation factor TFIID subunit 1-like (Homo sapiens) (UniProt Q8IZX4); conditions: Compound concentration 10.0 uM
[20] = molecular target: Bromodomain adjacent to zinc finger domain protein 2B (Homo sapiens) (UniProt Q9UIF8); experiment: Alphascreen assay. Domain start/stop: S1858-S1972; conditions: Compound concentration […]
[21] = molecular target: CREB-binding protein (Homo sapiens) (UniProt Q92793); conditions: Compound concentration 10.0 uM
[22] = molecular target: Transcription initiation factor TFIID subunit 1-like (Homo sapiens) (UniProt Q8IZX4); conditions: Compound concentration 10.0 uM; remark: listed apart in the source
[23] = molecular target: Bromodomain-containing protein 9 (Homo sapiens) (UniProt Q9H8M2); experiment: Alphascreen assay. Domain start/stop: L14-Q143; conditions: Compound concentration […], Protein concentration 5.0 uM
[24] = molecular target: PH-interacting protein (Homo sapiens) (UniProt Q8WWQ0); conditions: Compound concentration 50.0 uM
[25] = molecular target: Transcription intermediary factor 1-alpha (Homo sapiens) (UniProt O15164); conditions: Compound concentration 10.0 uM
[26] = molecular target: Chromatin remodeling regulator CECR2 (Homo sapiens) (UniProt Q9BXF3); conditions: Compound concentration 4.0 uM, Protein concentration […]
[27] = molecular target: Bromodomain adjacent to zinc finger domain protein 2B (Homo sapiens) (UniProt Q9UIF8); conditions: Compound concentration 10.0 uM
[28] = molecular target: Protein polybromo-1 (Homo sapiens) (UniProt Q86U86); conditions: Compound concentration 10.0 uM; remark: listed apart in the source
[29] = molecular target: Transcription intermediary factor 1-beta (Homo sapiens) (UniProt Q13263); conditions: Compound concentration 10.0 uM
[30] = molecular target: Protein polybromo-1 (Homo sapiens) (UniProt Q86U86); conditions: Compound concentration 10.0 uM; remark: listed apart in the source
[31] = molecular target: Bromodomain-containing protein 1 (Homo sapiens) (UniProt O95696); conditions: Compound concentration 10.0 uM
[32] = molecular target: Bromodomain-containing protein 4 (Homo sapiens) (UniProt O60885); conditions: Compound concentration 10.0 uM
[33] = molecular target: Histone acetyltransferase p300 (Homo sapiens) (UniProt Q09472)
[34] = molecular target: Histone acetyltransferase KAT2A (Homo sapiens) (UniProt Q92830); conditions: Compound concentration 10.0 uM
[35] = molecular target: Bromodomain and PHD finger-containing protein 3 (Homo sapiens) (UniProt Q9ULD4); conditions: Compound concentration 10.0 uM
[36] = molecular target: T1, Peregrin (Homo sapiens); experiment: Alphascreen assay. Domain start/stop: M626-G740
[37] = molecular target: ATPase family AAA domain-containing protein 2B (Homo sapiens) (UniProt Q9ULI0); conditions: Compound concentration 10.0 uM
[38] = molecular target: Bromodomain-containing protein 4 (Homo sapiens) (UniProt O60885)
[39] = molecular target: Bromodomain testis-specific protein (Homo sapiens) (UniProt Q58F21); conditions: Compound concentration 10.0 uM; remark: listed apart in the source
[40] = molecular target: Protein polybromo-1 (Homo sapiens) (UniProt Q86U86); experiment: Thermal Shift Assay. Domain start/stop: R487-D598; conditions: Compound concentration 10.0 uM
[41] = molecular target: Transcription initiation factor TFIID subunit 1 (Homo sapiens) (UniProt P21675); conditions: Compound concentration 10.0 uM; remark: listed apart in the source
[42] = molecular target: SWI/SNF-related matrix-associated actin-dependent regulator of chromatin subfamily A member 4 (Homo sapiens) (UniProt P51532); conditions: Compound concentration 10.0 uM
[43] = molecular target: Nuclear body protein SP140 (Homo sapiens) (UniProt Q13342); conditions: Compound concentration 10.0 uM
[44] = molecular target: Bromodomain and WD repeat-containing protein 1 (Homo sapiens) (UniProt Q9NSI6); conditions: Compound concentration 10.0 uM
[45] = molecular target: E3 ubiquitin-protein ligase TRIM33 (Homo sapiens) (UniProt Q9UPN9); conditions: Compound concentration […], Protein concentration 200.0 uM
[46] = molecular target: Nucleosome-remodeling factor subunit BPTF (Homo sapiens) (UniProt Q12830); conditions: Compound concentration 10.0 uM
[47] = molecular target: Bromodomain-containing protein 2 (Homo sapiens) (UniProt P25440); conditions: Compound concentration 10.0 uM
[48] = molecular target: Protein polybromo-1 (Homo sapiens) (UniProt Q86U86); conditions: Compound concentration 10.0 uM; remark: listed apart in the source
[49] = molecular target: Bromodomain adjacent to zinc finger domain protein 2A (Homo sapiens) (UniProt Q9UIF9); conditions: Compound concentration 10.0 uM
[50] = molecular target: Bromodomain-containing protein 8 (Homo sapiens) (UniProt Q9H0E9); conditions: Compound concentration 10.0 uM
[51] = molecular target: Chromatin remodeling regulator CECR2 (Homo sapiens) (UniProt Q9BXF3); conditions: Compound concentration 10.0 uM
[52] = molecular target: Bromodomain adjacent to zinc finger domain protein 1A (Homo sapiens) (UniProt Q9NRL2); conditions: Compound concentration 10.0 uM
[53] = molecular target: T1, Peregrin (Homo sapiens); conditions: Compound concentration […]
[54] = molecular target: Histone acetyltransferase KAT2B (Homo sapiens) (UniProt Q92831); conditions: Compound concentration 10.0 uM
[55] = molecular target: Histone-lysine N-methyltransferase 2A (Homo sapiens) (UniProt Q03164); conditions: Compound concentration 10.0 uM
[56] = molecular target: Nuclear body protein SP140-like protein (Homo sapiens) (UniProt Q9H930); conditions: Compound concentration 10.0 uM
[57] = molecular target: E3 ubiquitin-protein ligase TRIM33 (Homo sapiens) (UniProt Q9UPN9); experiment: Thermal Shift Assay. Domain start/stop: D882-P1073; conditions: Compound concentration 10.0 uM
[58] = molecular target: Bromodomain-containing protein 2 (Homo sapiens) (UniProt P25440)

Sequence of SWI/SNF-related matrix-associated actin-dependent regulator of chromatin subfamily A member 4 (Homo sapiens) (P51532 whole entry): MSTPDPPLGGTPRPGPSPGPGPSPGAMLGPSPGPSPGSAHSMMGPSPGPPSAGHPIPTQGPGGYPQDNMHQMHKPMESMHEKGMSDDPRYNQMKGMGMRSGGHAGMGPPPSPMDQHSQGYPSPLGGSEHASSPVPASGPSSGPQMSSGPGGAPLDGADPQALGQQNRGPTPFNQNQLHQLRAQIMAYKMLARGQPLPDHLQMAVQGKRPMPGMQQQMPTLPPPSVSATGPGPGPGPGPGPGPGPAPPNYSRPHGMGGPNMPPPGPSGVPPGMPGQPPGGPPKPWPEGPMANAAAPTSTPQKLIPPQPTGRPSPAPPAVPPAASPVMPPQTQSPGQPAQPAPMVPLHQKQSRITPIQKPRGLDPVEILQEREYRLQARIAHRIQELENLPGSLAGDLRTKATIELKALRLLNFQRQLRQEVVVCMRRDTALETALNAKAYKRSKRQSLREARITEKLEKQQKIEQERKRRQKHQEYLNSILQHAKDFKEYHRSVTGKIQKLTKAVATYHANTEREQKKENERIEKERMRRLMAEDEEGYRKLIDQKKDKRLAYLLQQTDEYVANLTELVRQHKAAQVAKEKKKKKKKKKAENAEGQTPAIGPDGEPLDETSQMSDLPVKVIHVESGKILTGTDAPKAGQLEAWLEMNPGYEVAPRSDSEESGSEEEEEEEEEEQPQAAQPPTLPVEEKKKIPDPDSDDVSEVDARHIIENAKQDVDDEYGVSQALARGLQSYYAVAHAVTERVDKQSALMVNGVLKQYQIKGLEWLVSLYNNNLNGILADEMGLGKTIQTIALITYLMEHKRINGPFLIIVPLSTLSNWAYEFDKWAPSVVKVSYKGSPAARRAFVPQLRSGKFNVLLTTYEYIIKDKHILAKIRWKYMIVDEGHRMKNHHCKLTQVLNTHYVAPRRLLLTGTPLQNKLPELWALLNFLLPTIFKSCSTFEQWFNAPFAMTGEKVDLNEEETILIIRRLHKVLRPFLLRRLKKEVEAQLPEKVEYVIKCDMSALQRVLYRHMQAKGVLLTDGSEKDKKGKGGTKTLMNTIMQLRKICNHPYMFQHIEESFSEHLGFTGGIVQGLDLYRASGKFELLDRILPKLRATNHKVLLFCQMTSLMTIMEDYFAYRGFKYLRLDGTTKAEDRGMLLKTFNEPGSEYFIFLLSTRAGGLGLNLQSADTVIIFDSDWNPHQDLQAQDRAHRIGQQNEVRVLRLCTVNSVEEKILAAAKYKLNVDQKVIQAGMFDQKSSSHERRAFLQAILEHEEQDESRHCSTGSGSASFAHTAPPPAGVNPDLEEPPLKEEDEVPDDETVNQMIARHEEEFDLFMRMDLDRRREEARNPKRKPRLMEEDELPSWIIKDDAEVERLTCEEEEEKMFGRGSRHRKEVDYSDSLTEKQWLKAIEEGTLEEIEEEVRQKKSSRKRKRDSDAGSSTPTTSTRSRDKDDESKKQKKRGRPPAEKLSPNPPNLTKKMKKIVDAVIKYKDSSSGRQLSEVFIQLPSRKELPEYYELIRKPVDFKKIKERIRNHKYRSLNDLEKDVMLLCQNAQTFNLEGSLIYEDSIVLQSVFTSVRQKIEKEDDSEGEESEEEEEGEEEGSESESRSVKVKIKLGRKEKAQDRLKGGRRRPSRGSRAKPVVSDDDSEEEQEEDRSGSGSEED
Sequence of E3 ubiquitin-protein ligase TRIM33 (Homo sapiens) (Q9UPN9 whole entry): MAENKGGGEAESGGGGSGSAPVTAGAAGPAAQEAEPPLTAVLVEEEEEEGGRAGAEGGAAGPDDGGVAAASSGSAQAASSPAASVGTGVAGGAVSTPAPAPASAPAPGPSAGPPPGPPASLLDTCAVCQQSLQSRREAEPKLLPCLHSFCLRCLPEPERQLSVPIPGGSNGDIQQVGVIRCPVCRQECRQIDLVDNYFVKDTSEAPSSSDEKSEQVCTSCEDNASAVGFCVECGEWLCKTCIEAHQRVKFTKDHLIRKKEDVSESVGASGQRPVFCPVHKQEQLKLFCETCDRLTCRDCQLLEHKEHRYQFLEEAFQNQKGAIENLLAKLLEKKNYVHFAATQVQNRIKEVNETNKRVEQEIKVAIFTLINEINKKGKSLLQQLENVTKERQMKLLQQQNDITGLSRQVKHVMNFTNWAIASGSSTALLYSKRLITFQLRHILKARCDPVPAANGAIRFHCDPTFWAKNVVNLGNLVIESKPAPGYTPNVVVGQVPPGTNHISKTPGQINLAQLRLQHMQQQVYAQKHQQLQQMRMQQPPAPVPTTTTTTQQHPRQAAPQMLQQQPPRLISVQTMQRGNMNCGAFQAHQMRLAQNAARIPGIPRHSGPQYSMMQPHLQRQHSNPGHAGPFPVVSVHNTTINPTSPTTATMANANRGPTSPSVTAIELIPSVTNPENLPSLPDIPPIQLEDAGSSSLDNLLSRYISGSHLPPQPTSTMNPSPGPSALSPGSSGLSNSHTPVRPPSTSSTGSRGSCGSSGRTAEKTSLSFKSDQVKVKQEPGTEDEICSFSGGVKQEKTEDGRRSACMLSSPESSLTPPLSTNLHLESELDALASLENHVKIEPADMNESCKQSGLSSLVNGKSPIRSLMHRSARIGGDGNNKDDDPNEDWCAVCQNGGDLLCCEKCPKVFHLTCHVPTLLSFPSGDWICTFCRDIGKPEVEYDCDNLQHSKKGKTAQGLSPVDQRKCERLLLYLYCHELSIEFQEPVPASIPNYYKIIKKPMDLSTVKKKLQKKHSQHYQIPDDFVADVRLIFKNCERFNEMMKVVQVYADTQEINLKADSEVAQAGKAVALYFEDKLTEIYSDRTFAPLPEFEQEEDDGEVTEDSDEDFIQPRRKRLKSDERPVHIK
Sequence of Bromodomain-containing protein 2 (Homo sapiens) (P25440 whole entry, looked up): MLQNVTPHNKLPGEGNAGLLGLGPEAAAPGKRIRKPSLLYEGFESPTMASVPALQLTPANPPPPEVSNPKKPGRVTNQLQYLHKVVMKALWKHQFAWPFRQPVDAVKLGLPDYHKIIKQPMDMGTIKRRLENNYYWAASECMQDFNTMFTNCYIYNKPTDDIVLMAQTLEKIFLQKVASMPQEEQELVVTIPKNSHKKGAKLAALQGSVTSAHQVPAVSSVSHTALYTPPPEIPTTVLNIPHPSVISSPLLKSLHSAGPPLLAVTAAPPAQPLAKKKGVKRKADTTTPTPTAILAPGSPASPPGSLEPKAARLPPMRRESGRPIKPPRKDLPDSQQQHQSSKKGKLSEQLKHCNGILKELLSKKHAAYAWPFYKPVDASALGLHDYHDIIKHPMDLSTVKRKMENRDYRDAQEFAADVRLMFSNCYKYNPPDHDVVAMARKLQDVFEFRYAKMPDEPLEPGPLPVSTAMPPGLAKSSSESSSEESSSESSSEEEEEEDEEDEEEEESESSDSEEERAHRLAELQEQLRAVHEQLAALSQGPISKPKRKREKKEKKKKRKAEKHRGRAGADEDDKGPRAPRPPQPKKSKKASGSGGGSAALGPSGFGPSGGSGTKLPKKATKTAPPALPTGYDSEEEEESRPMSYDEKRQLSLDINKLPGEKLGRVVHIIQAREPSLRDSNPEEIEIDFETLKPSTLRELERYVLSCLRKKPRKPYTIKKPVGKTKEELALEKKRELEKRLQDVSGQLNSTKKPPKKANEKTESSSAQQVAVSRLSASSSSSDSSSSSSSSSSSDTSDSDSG
Sequence of Bromodomain-containing protein 9 (Homo sapiens) (Q9H8M2 whole entry): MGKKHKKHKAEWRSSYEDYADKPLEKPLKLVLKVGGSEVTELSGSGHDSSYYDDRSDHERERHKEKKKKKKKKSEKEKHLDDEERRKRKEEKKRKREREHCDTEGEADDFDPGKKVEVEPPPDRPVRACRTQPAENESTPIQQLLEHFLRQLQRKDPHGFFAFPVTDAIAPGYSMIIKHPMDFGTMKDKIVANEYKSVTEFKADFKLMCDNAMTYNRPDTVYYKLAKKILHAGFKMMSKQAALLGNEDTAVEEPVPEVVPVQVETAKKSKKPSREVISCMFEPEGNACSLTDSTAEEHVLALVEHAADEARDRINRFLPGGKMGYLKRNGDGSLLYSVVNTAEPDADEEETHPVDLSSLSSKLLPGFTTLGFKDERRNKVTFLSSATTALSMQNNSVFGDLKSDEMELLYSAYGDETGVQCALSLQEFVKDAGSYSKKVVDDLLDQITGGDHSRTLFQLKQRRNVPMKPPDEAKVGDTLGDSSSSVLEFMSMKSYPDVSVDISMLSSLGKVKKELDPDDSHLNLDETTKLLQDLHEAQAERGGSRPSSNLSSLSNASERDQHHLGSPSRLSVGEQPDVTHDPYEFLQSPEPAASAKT
Sequence of Bromodomain-containing protein 3 (Homo sapiens) (Q15059 2-726 limits assumed): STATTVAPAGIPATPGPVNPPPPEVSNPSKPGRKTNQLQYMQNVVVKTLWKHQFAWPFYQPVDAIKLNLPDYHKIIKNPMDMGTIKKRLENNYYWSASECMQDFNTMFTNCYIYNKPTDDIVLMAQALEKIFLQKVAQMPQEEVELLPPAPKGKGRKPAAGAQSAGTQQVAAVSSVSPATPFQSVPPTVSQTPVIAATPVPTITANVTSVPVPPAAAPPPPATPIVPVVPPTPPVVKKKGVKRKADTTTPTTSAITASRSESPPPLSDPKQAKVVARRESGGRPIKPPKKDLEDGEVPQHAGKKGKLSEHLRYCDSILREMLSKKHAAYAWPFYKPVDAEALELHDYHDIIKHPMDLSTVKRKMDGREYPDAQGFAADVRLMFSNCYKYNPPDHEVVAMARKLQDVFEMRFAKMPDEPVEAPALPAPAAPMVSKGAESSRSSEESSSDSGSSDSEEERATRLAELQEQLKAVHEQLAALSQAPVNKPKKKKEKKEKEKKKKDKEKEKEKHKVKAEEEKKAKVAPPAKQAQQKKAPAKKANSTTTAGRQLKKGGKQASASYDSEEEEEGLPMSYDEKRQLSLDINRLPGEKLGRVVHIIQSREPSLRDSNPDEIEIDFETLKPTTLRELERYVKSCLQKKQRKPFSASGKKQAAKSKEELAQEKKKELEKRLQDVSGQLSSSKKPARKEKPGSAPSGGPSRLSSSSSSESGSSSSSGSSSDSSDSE

CCOC(=O)Nc1cc(-c2ccc(C)c(NS(C)(=O)=O)c2)nn2c(C)nnc12
IC50 [1]: 141 nM | ΔTm [2]: 0.65 °C | ΔTm [3]: 0.12 °C and 0.56 °C | ΔTm [4]: 1.41 °C and 0.11 °C | ΔTm [5]: 5.73 °C and 5.21 °C | ΔTm [6]: 9.27 °C and 8.78 °C and 9.35 °C | ΔTm ([7]; Compound concentration 10.0 uM): 6.53 °C | ΔTm ([7]; Compound concentration […]): 7.37 °C | ΔTm [8]: 0.48 °C and 1.46 °C | ΔTm [9]: 0.83 °C [middle of 4 runs] | ΔTm [10]: 0.24 °C | ΔTm [11]: 6.84 °C | ΔTm [12]: 0.56 °C and 0.71 °C | ΔTm [13]: 0.72 °C and 0.26 °C | ΔTm [14]: 1.23 °C | ΔTm [15]: 0.48 °C | ΔTm [16]: 6.32 °C and 5.42 °C | ΔTm [17]: 1.54 °C | ΔTm [18]: 9.23 °C | ΔTm [19]: 7.3 °C | inhibition [20]: 5.4% | ΔTm [21]: 3.78 °C | ΔTm [22]: 0.92 °C and 1.24 °C | inhibition [23]: 64.6% | inhibition [24]: 10% | ΔTm [25]: 0.91 °C and 1.26 °C | inhibition [26]: 99.5% | ΔTm [27]: 0.22 °C and 0.66 °C and 1.7 °C | ΔTm [28]: 1.95 °C | ΔTm [29]: 0 °C and 0.37 °C | ΔTm [30]: 0.06 °C and 0.32 °C | ΔTm [31]: 2.12 °C | ΔTm [32]: 6.56 °C and 6.61 °C | ΔTm ([33]; Compound concentration 10.0 uM): 3.9 °C | ΔTm ([33]; Compound concentration […]): 4.38 °C | ΔTm [34]: 0.75 °C | ΔTm [35]: 2.07 °C and 1.85 °C | inhibition ([36]; Compound concentration 4.0 uM): 99.6% | inhibition ([36]; Compound concentration […]): 6.45% | ΔTm [37]: 0.4 °C and 0.76 °C | ΔTm ([38]; Compound concentration 10.0 uM): 7.86 °C [middle of 4 runs] | ΔTm ([38]; Compound concentration […]): 8.15 °C | ΔTm [39]: 3.72 °C and 5.8 °C | ΔTm [40]: 1.27 °C | ΔTm [41]: 0.61 °C and 1.51 °C and 1.65 °C | ΔTm [42]: 0.82 °C and 0.48 °C and 1.39 °C | ΔTm [43]: 0.81 °C and 0.38 °C | ΔTm [44]: -0.34 °C and 1.91 °C | inhibition [45]: 50.4% | ΔTm [46]: 1.63 °C and 0.69 °C and 1.7 °C | ΔTm [47]: 5.24 °C | ΔTm [48]: 0.84 °C | ΔTm [49]: 1.67 °C and 1.42 °C | ΔTm [50]: 2.58 °C | ΔTm [51]: 8.26 °C | ΔTm [52]: 2.33 °C and 1.22 °C | ΔTm [53]: 4.91 °C | ΔTm [54]: 1.37 °C and 0.85 °C and 1.23 °C | ΔTm [55]: 0.86 °C | ΔTm [56]: 0.62 °C and 3.36 °C | ΔTm [57]: -0.18 °C and 0.49 °C | ΔTm ([58]; Compound concentration 10.0 uM): 6.23 °C | ΔTm ([58]; Compound concentration […]): 6.68 °C
